Holding throughout (format): cell-based, human
In test [1] the test system is MDA-MB-231 cells. Kind of test: On chip drug screening assay (ethidium homodimer 1 staining). As for the experimental part:
(§1) Jurkat E6.1 cells (ATCC® TIB-152™) and MDA-MB-231 cells (ATCC® HTB-26™) were used as models for suspended and adherent cancer cell lines respectively. Jurkat cell line was derived from human acute T cell leukemia, whereas MDA-MB-231 cell line was derived from human metastatic breast adenocarcinoma.
On chip drug screening was performed using the PDMS-based microfluidic chip as described above. A 500 μL glass syringe (Hamilton, USA) and polytetrafluoroethylene (PTFE) tubings with appropriate bore (Cole Parmer, USA) was used to connect between the syringe pump (Harvard Apparatus PHD Ultra Syringe Pump, USA) and the microfluidic chip. Fluorinert® FC-40 (Sigma-Aldrich, USA) supplemented with 2% 008-Fluorosurfactant (Ran Biotechnologies, USA) was used as oil phase; relevant cell culture medium, supplemented with 1% (w/v) methyl cellulose (Sigma-Aldrich, USA) was used as aqueous phase. Cells treated with 0.1% dimethyl sulfoxide (DMSO) were used as negative control.
Briefly, cells at final concentrations of 1-2×10^6 cells per mL were aliquoted in 0.2 mL PCR tubes, then mixed with corresponding drugs and 2 μM ethidium homodimer 1 (Life Technologies, USA) by manual pipetting. Next, […], cell-drug mixtures were loaded into the tubing, consecutively segregated by oil phase at withdrawal rate of 200 μL/h by syringe pump. After loading all mixtures, the tubing was inserted into the microfluidic chip, which was back-flushed with oil phase at 500 μL/h by syringe pump. After that, the mixtures were infused at 25 μL/h by syringe pump. Finally, the inlet and outlet tubings were cut and sealed with Vaseline (Vaseline, USA). The chips were placed in 150 mm cell culture dish (Coming, USA) containing wet paper towels, and transferred to humidified incubator at 37° C. supplemented with 5% CO2 for 16-24 h incubation. Brightfield and red fluorescence images (Ex. 531/40 nm, Em. 593/40 nm) were taken under 10× magnification (Life Technologies EVOS FL Imaging System, USA).
For on chip assays, brightfield and red fluorescence images were initially processed by ImageJ v.1.50i, Cell counting was either performed manually or by Matlab v.R201.5a based on the workflow shown on FIG. 5B. Briefly, cells from brightfield and red fluorescence images were detected separately using a heuristic Hough Transformation model based on threshold implementation on circular diameter and pixel intensity. Next, each recognized cell was dissected into 10×10 pixels matrix for analysis of its pixel intensity. Subsequently, two layers of multi-radii analysis of pixel intensity around the center of each matrix distinguished signal from noise. Afterwards, cells were distinguished from noise based on the brightfield image, whereas cell viability was determined by signal intensity of corresponding red fluorescence image. Finally, positional information (defined by row: x, and column: y) and size (defined by radius: r) of discrete image matrix was used to classify each cell as “live” or “dead”. The total number of cells in each image corresponding to each droplet formation well on chip was summarized as a table in CSV format for calculation of cell viability. […]
For on chip assays, the number of cells was counted in brightfield and red fluorescence images from each well respectively. Cell viability was calculated as follows: […]
where Total cells and Dead cells referred to the total number of cells counted from brightfield and red fluorescence images, respectively. […]

Test [2] deals with Jurkat cells. The description is as above. The note with it: 16-24 h. As for the experimental part: Jurkat E6.1 cells (ATCC® TIB-152™) and MDA-MB-231 cells (ATCC® HTB-26™) were used as models for suspended and adherent cancer cell lines respectively. Jurkat cell line was derived from human acute T cell leukemia, whereas MDA-MB-231 cell line was derived from human metastatic breast adenocarcinoma. On chip drug screening was performed using the PDMS-based microfluidic chip as described above. A 500 μL glass syringe (Hamilton, USA) and polytetrafluoroethylene (PTFE) tubings with appropriate bore (Cole Parmer, USA) was used to connect between the syringe pump (Harvard Apparatus PHD Ultra Syringe Pump, USA) and the microfluidic chip. Fluorinert® FC-40 (Sigma-Aldrich, USA) supplemented with 2% 008-Fluorosurfactant (Ran Biotechnologies, USA) was used as oil phase; relevant cell culture medium, supplemented with 1% (w/v) methyl cellulose (Sigma-Aldrich, USA) was used as aqueous phase. Cells treated with 0.1% dimethyl sulfoxide (DMSO) were used as negative control. […] Next, […], cell-drug mixtures were loaded into the tubing, consecutively segregated by oil phase at withdrawal rate of 200 μL/h by syringe pump. After loading all mixtures, the tubing was inserted into the microfluidic chip, which was back-flushed with oil phase at 500 μL/h by syringe pump. After that, the mixtures were infused at 25 μL/h by syringe pump. Finally, the inlet and outlet tubings were cut and sealed with Vaseline (Vaseline, USA). […] Brightfield and red fluorescence images (Ex. 531/40 nm, Em. 593/40 nm) were taken under 10× magnification (Life Technologies EVOS FL Imaging System, USA). […] For on chip assays, the number of cells was counted in brightfield and red fluorescence images from each well respectively.

Test [3] has as its system Jurkat cells. Kind of test: 96-well microtiter plate drug screening assay (Alamar Blue). The note with it: 96-well plate, 16-24 h. As for the experimental part:
as §1
(§2) Microtiter plate drug screening assays were carried out on 96-well clear round flat-bottom plates (Corning, USA) or 384-well white square flat-bottom plates (Corning, USA).
(§3) First, 5.0×10^5 or 1.0×10^5 cells were seeded per well for 96-well and 384-well plates respectively. Drugs were diluted with Dulbecco's phosphate-buffered saline (DPBS) (Life Technologies, USA), and subsequently added to achieve final drug concentrations as indicated on the graphs. Afterwards, the plates were transferred to humidified incubator at 37° C. supplemented with 5% CO2 for 16-24 h incubation. Finally, Alamar Blue assay was used to measure cell viability. Fluorescence intensity (Ex. 560 nm, Em. 590 nm) using auto-cutoff was measured from bottom on plate reader (Molecular Devices SpectraMax MS Plate Reader, USA). Cells treated with 0.1% dimethyl sulfoxide (DMSO) were used as negative control, while no cells were added to blank control. All experiments were performed in triplicate for 96-well plates and in quadruplicates for 384-well relates.
(§4) For microliter plate assays, average relative fluorescence signal measured by plate reader from 6 reads of each well was used as raw data point. Cell viability was calculated as follows: […]
(§5) where Sample represented raw data points of each sample well, whereas DMSO control and Blank represented average raw data points of all DMSO control and Blank wells, respectively.

In test [4] the test system is MDA-MB-231 cells. Described as above. The following applies: 96-well plate. As for the experimental part:
as §1, §2, §3, §4, §5

Test [5] concerns Jurkat cells. Kind of test: 384-well microtiter plate drug screening assay (Alamar Blue). The note with it: 384-well plate, 16-24 h. As for the experimental part: as §1, §2, §3, §4, §5
Test [6] deals with MDA-MB-231 cells. The description is as above. The note with it: 384-well plate. As for the experimental part: as §1, §2, §3, §4, §5

Some results are limits rather than exact numbers.

Consider `CC(C)C[C@H](NC(=O)[C@H](Cc1ccccc1)NC(=O)c1cnccn1)B(O)O` [bortezomib], for which the 50% inhibitory concentration (IC50) was more than 10 µM with MDA-MB-231 cells [1] (Homo sapiens); 22.1 µM in the test on Jurkat cells [2] (Homo sapiens); 22.1 µM in the test with Jurkat cells [3] (Homo sapiens); more than 10 µM in the test on MDA-MB-231 cells [4] (Homo sapiens); 0.039 µM in the test with Jurkat cells [5] (Homo sapiens). Also, the viability at 10 µM in the test on MDA-MB-231 cells [6] (Homo sapiens, 10.0 μM dose, read-out: cell viability) was 50%.

Take `N.N.[Cl][Pt][Cl]` [cisplatin]: the IC50 was 4.2 µM with MDA-MB-231 cells [1]; 39 µM in the test with Jurkat cells [2]; 39 µM in the test with Jurkat cells [3]; more than 50 µM in the test on MDA-MB-231 cells [4]; 39 µM in the test with Jurkat cells [5]; more than 50 µM with MDA-MB-231 cells [6].

Values taken from US20190291112A1, “DROPLET MICROFLUIDICS FOR DRUG SCREENING” (University of Macau, priority 2018, published 2019).
